Experimental data reported in PubChem BioAssay (NCI).
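Interpolation was linear, between the two tested concentrations surrounding the appropriate level; five concentrations were tested over 48 hours in 96-well plates. GI50: concentration for 50% inhibition of growth. TGI denotes the concentration required for complete inhibition of growth.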

What was measured:
Assay in all cases: NCI-60 cell line screen, 48 h
[1] = system: NCI-H23 lung
[2] = system: HCC-2998 colon
[3] = system: ACHN renal
[4] = system: SR leukemia
[5] = system: DU-145 prostate
[6] = system: OVCAR-8 ovarian
[7] = system: MDA-MB-231 breast
[8] = system: A549 NSCLC
[9] = system: MCF7 breast
[10] = system: OVCAR-4 ovarian
[11] = system: CAKI-1 renal
[12] = system: HCT-116 colon
[13] = system: M14 melanoma
[14] = system: U251 CNS
[15] = system: SK-MEL-5 melanoma
[16] = system: UACC-257 melanoma
[17] = system: IGROV1 ovarian
[18] = system: TK-10 renal
[19] = system: A498 renal
[20] = system: SK-OV-3 ovarian
[21] = system: MOLT-4 leukemia
[22] = system: SN12C renal
[23] = system: COLO 205 colon
[24] = system: NCI-H460 lung
[25] = system: OVCAR-3 ovarian
[26] = system: MDA-MB-435
[27] = system: SF-295 CNS
[28] = system: UO-31 renal
[29] = system: SNB-75 CNS
[30] = system: 786-0 renal
[31] = system: HS 578T breast
[32] = system: NCI-H522 lung
[33] = system: RXF 393 renal
[34] = system: OVCAR-5 ovarian
[35] = system: CCRF-CEM leukemia
[36] = system: PC-3 prostate
[37] = system: T-47D breast
[38] = system: SK-MEL-28 melanoma
[39] = system: UACC-62 melanoma
[40] = system: RPMI-8226 leukemia
[41] = system: EKVX NSCLC
[42] = system: HOP-62 NSCLC
[43] = system: KM12 colon
[44] = system: SF-539 CNS
[45] = system: SF-268 CNS
[46] = system: BT-549 breast
[47] = system: NCI-H226 lung
[48] = system: SW-620 colon
[49] = system: K-562 leukemia
[50] = system: SNB-19 CNS
[51] = system: HOP-92 NSCLC
[52] = system: LOX IMVI melanoma
[53] = system: HT29 colon
[54] = system: HCT-15 colon
[55] = system: SK-MEL-2 melanoma
[56] = system: MALME-3M melanoma
[57] = system: NCI/ADR-RES ovarian

Which results are given for `N#CCC1CCN(c2nc(Nc3ccc(N4CCC(O)CC4)cc3)c3c(=O)[nH]ncc3n2)CC1`?
GI50 [1]: 0.732 µM; TGI [1]: > 100 µM; GI50 [2]: 1.71 µM; TGI [2]: > 100 µM; GI50 [3]: 0.473 µM; TGI [3]: > 100 µM; GI50 [4]: 0.288 µM; TGI [4]: > 100 µM; GI50 [5]: 0.547 µM; TGI [5]: > 100 µM; GI50 [6]: 8.08 µM; TGI [6]: > 100 µM; GI50 [7]: 1.17 µM; TGI [7]: > 100 µM; GI50 [8]: 0.455 µM; TGI [8]: > 100 µM; GI50 [9]: 0.297 µM; TGI [9]: > 100 µM; GI50 [10]: > 58.1 µM; TGI [10]: > 100 µM; GI50 [11]: 0.312 µM; TGI [11]: > 100 µM; GI50 [12]: 0.345 µM; TGI [12]: > 100 µM; GI50 [13]: 0.402 µM; TGI [13]: > 100 µM; GI50 [14]: 1.03 µM; TGI [14]: > 100 µM; GI50 [15]: > 100 µM; TGI [15]: > 100 µM; GI50 [16]: > 100 µM; TGI [16]: > 100 µM; GI50 [17]: 0.266 µM; TGI [17]: 2.95 µM; GI50 [18]: 0.306 µM; TGI [18]: > 100 µM; GI50 [19]: 0.342 µM; TGI [19]: 1.74 µM; GI50 [20]: 0.267 µM; TGI [20]: 1.88 µM; GI50 [21]: 0.652 µM; TGI [21]: > 100 µM; GI50 [22]: 0.391 µM; TGI [22]: > 100 µM; GI50 [23]: 0.374 µM; GI50 [24]: 0.692 µM; TGI [24]: > 100 µM; TGI [25]: > 100 µM; GI50 [26]: 0.628 µM; TGI [26]: > 100 µM; GI50 [27]: 1.44 µM; TGI [27]: > 100 µM; GI50 [28]: 0.259 µM; TGI [28]: 4.67 µM; GI50 [29]: 0.337 µM; TGI [29]: 2.43 µM; GI50 [30]: 0.82 µM; TGI [30]: > 100 µM; GI50 [31]: 0.22 µM; TGI [31]: 1.23 µM; GI50 [32]: > 100 µM; TGI [32]: > 100 µM; GI50 [33]: 0.303 µM; TGI [33]: 1.3 µM; GI50 [34]: 1.22 µM; TGI [34]: > 100 µM; GI50 [35]: 1.01 µM; TGI [35]: > 100 µM; GI50 [36]: > 100 µM; TGI [36]: > 100 µM; GI50 [37]: 2.05 µM; TGI [37]: > 100 µM; GI50 [38]: 1.2 µM; TGI [38]: > 100 µM; GI50 [39]: > 100 µM; TGI [39]: > 100 µM; GI50 [40]: > 100 µM; TGI [40]: > 100 µM; GI50 [41]: 1.85 µM; TGI [41]: > 100 µM; GI50 [42]: 0.801 µM; TGI [42]: > 100 µM; GI50 [43]: 0.038 µM; TGI [43]: > 100 µM; GI50 [44]: 0.869 µM; TGI [44]: 2.82 µM; GI50 [45]: 1.2 µM; TGI [45]: > 100 µM; GI50 [46]: 1.28 µM; TGI [46]: > 100 µM; GI50 [47]: 0.639 µM; TGI [47]: > 100 µM; GI50 [48]: 0.443 µM; TGI [48]: > 100 µM; GI50 [49]: 1.51 µM; TGI [49]: > 100 µM; GI50 [50]: 5.02 µM; TGI [50]: > 100 µM; GI50 [51]: 0.239 µM; TGI [51]: > 100 µM; GI50 [52]: 0.489 µM; TGI [52]: > 100 µM; GI50 [53]: 0.283 µM; TGI [53]: > 100 µM; GI50 [54]: 0.428 µM; TGI [54]: > 100 µM

Which results are given for `CCN(CC)CCCC(C)Nc1ccnc2cc(OC)ccc12` (configuration not stated)?
GI50 [1]: 31.6 µM; TGI [1]: 96.3 µM; GI50 [2]: 14.7 µM; TGI [2]: 28.4 µM; GI50 [3]: 39.4 µM; TGI [3]: > 100 µM; GI50 [55]: 24.8 µM; TGI [55]: 52.9 µM; GI50 [4]: 24.1 µM; TGI [4]: > 100 µM; GI50 [5]: 20.6 µM; TGI [5]: 44.4 µM; GI50 [6]: 24.3 µM; TGI [6]: 71.1 µM; GI50 [7]: 22.5 µM; TGI [7]: 54.3 µM; GI50 [8]: 18.3 µM; TGI [8]: 35.5 µM; GI50 [9]: > 100 µM; TGI [9]: > 100 µM; GI50 [10]: 22.6 µM; TGI [10]: 62.2 µM; GI50 [11]: 19.6 µM; TGI [11]: 44.4 µM; GI50 [12]: 29.2 µM; TGI [12]: 46 µM; GI50 [13]: 16.7 µM; TGI [13]: 30.4 µM; GI50 [14]: 42 µM; TGI [14]: > 100 µM; GI50 [15]: 18.3 µM; TGI [15]: 32.8 µM; GI50 [16]: 18.2 µM; TGI [16]: 34.2 µM; GI50 [17]: 27.3 µM; TGI [17]: 79.3 µM; GI50 [18]: 17.7 µM; TGI [18]: 40.6 µM; GI50 [19]: 35.3 µM; TGI [19]: > 100 µM; GI50 [20]: 24.9 µM; TGI [20]: 52.3 µM; GI50 [21]: 25.9 µM; TGI [21]: 74.5 µM; GI50 [22]: 29.7 µM; TGI [22]: 75.1 µM; GI50 [23]: 16.1 µM; TGI [23]: 36.8 µM; GI50 [24]: > 100 µM; TGI [24]: > 100 µM; GI50 [25]: 23.7 µM; TGI [25]: 67.5 µM; GI50 [26]: 19.9 µM; TGI [26]: 40.5 µM; GI50 [27]: 34.3 µM; TGI [27]: > 100 µM; GI50 [28]: 16.4 µM; TGI [28]: 34.6 µM; GI50 [56]: 22.1 µM; TGI [56]: 50.2 µM; GI50 [30]: 17.1 µM; TGI [30]: 35.9 µM; GI50 [31]: 26.3 µM; TGI [31]: 66.3 µM; GI50 [32]: 17.9 µM; TGI [32]: 37.4 µM; GI50 [33]: 15.7 µM; TGI [33]: 35.5 µM; GI50 [34]: 21.2 µM; TGI [34]: 50.2 µM; GI50 [57]: 91.1 µM; TGI [57]: > 100 µM; GI50 [35]: 18.1 µM; TGI [35]: 42.3 µM; GI50 [36]: 5.77 µM; TGI [36]: 21.8 µM; GI50 [39]: 19.5 µM; TGI [39]: 37.7 µM; GI50 [40]: 18.6 µM; TGI [40]: 42 µM; GI50 [41]: 44.9 µM; TGI [41]: > 100 µM; GI50 [42]: 21.2 µM; TGI [42]: 50.9 µM; GI50 [43]: 26.4 µM; TGI [43]: > 100 µM; GI50 [44]: 19 µM; TGI [44]: 34.4 µM; GI50 [45]: > 100 µM; TGI [45]: > 100 µM; GI50 [46]: 18.7 µM; TGI [46]: 37 µM; GI50 [47]: 22.2 µM; TGI [47]: 46.6 µM; GI50 [48]: 23.7 µM; TGI [48]: 58.2 µM; GI50 [49]: 33.7 µM; TGI [49]: > 100 µM; GI50 [50]: 22.4 µM; TGI [50]: 53.3 µM; GI50 [51]: 9.25 µM; TGI [51]: 26.7 µM; GI50 [52]: 29.5 µM; TGI [52]: > 100 µM; GI50 [54]: 37.5 µM; TGI [54]: > 100 µM
